Results on ten molecules are retold here after ChEMBL document CHEMBL5584316, “Arcopilins: A New Family of Staphylococcus aureus Biofilm Disruptors from the Soil Fungus Arcopilus navicularis” (J Med Chem, 2024).

One data set concerns Pseudomonas aeruginosa. The data set can be described thus: Antimicrobial activity against Pseudomonas aeruginosa PA14 assessed as inhibition of microbial growth incubated overnight by serial dilution method. It counts as functional, organism-based.
Data set [1] concerns Chromobacterium violaceum. The data set can be described thus: Antimicrobial activity against Chromobacterium violaceum DSM 30191 assessed as inhibition of microbial growth incubated overnight by serial dilution method. It is filed as functional, organism-based.
The next data set relates to Mucor hiemalis. The experiment in a line: Antimicrobial activity against Mucor hiemalis DSM 2656 assessed as inhibition of microbial growth incubated overnight by serial dilution method. It counts as functional.
The subject of another data set is Rhodotorula glutinis. The experiment in a line: Antimicrobial activity against Rhodotorula glutinis DSM 10134 assessed as inhibition of microbial growth incubated overnight by serial dilution method. It counts as functional, organism-based.
Data set [2] has as its system Schizosaccharomyces pombe. The experiment in a line: Antimicrobial activity against Schizosaccharomyces pombe DSM 70572 assessed as inhibition of microbial growth incubated overnight by serial dilution method. It is filed as functional.
For a further data set, the system named is Candida albicans. The experiment in a line: Antimicrobial activity against Candida albicans DSM 1665 assessed as inhibition of microbial growth incubated overnight by serial dilution method. It is filed as functional.
Another data set relates to L929. The data set can be described thus: Cytotoxicity against mouse L929 cells assessed as inhibition of cell growth incubated for 5 days by MTT assay. It is filed as toxicity, cell-based. As to conditions: l929, 120 h, time 5 day.
In the next data set the test system is Escherichia coli. The experiment in a line: Antimicrobial activity against Escherichia coli DSM 1116 assessed as inhibition of microbial growth incubated overnight by serial dilution method. It is filed as functional, organism-based.
The test system of data set [3] is Mycolicibacterium smegmatis. The data set can be described thus: Antimicrobial activity against Mycobacterium smegmatis ATCC 700084 assessed as inhibition of microbial growth incubated overnight by serial dilution method. It is filed as functional.
A further data set deals with Wickerhamomyces anomalus. The data set can be described thus: Antimicrobial activity against Wickerhamomyces anomalus DSM 6766 assessed as inhibition of microbial growth incubated overnight by serial dilution method. It is filed as functional, organism-based.
In another data set the test system is KB 3-1. The data set can be described thus: Cytotoxicity against human KB-3-1 cells assessed as inhibition of cell growth incubated for 5 days by MTT assay. As to conditions: kb 3-1, 120 h, time 5 day. It is filed as toxicity, cell-based. For orientation: Tetrazolium dyes change colour on reduction, which living cells bring about.
The subject of data set [4] is Staphylococcus aureus. The experiment in a line: Antibiofilm activity in Staphylococcus aureus DSM1104 assessed as disruption of preformed biofilm at 3.9 ug/ml incubated for 18 hrs by crystal violet staining based assay relative to control. It counts as functional. As to conditions: dose 3.9 µg/ml.
Data set [5] deals with Staphylococcus aureus. The experiment in a line: Antibiofilm activity in Staphylococcus aureus DSM1104 assessed as disruption of preformed biofilm at 7.8 to 250 ug/ml incubated for 18 hrs by crystal violet staining based assay relative to control. It counts as functional. As to conditions: dose 7.8-250 µg/ml, at 7.8 to 250 µg/mL.
The test system of data set [6] is Staphylococcus aureus. The data set can be described thus: Antibiofilm activity in Staphylococcus aureus DSM1104 assessed as disruption of preformed biofilm at 3.9 to 250 ug/ml incubated for 18 hrs by crystal violet staining based assay. It is filed as functional, organism-based. To be noted: dose 3.9-250 µg/ml.
In data set [7] the test system is Staphylococcus aureus. The data set can be described thus: Antimicrobial activity against Staphylococcus aureus DSM 346 assessed as inhibition of microbial growth incubated overnight by serial dilution method. It is filed as functional.
In another data set the test system is Bacillus subtilis. The experiment in a line: Antimicrobial activity against Bacillus subtilis DSM 10 assessed as inhibition of microbial growth incubated overnight by serial dilution method. It is filed as functional.
In data set [8] the test system is Staphylococcus aureus. The experiment in a line: Antimicrobial activity against Staphylococcus aureus DSM 1104 assessed as inhibition of microbial growth incubated overnight by serial dilution method. It is filed as functional. As to conditions: DSM1104.
In data set [9] the test system is Staphylococcus aureus. The experiment in a line: Antibiofilm activity in Staphylococcus aureus DSM1104 assessed as disruption of preformed biofilm. It is filed as functional, organism-based.
The subject of data set [10] is Staphylococcus aureus. The experiment in a line: Synergistic antimicrobial activity against Staphylococcus aureus DSM 1104 planktonic cells assessed as inhibition of preformed biofilm by measuring fold increase in vancomycin potency at 3.9 to 7.8 ug/ml measured at 24 to 48 hrs by CFU counting assay relative to control. It is filed as functional. As to conditions: dose 3.9-7.8 µg/ml; time 24-48 hrs.

Data set [11] concerns Staphylococcus aureus. The data set can be described thus: Antimicrobial activity against Staphylococcus aureus DSM 1104 assessed as disruption of preformed biofilm by measuring reduction in metabolic activity at 3.9 ug/ml incubated for 24 hrs by XTT assay. It counts as functional, organism-based. To be noted: dose 3.9 µg/ml.
Data set [12] deals with Staphylococcus aureus. The experiment in a line: Antimicrobial activity against Staphylococcus aureus DSM 346 assessed as inhibition of microbial growth at 3.9 to 7.8 ug/ml measured for 10 hrs. It is filed as functional, organism-based. To be noted: DSM346, dose 3.9-7.8 µg/ml.
For data set [13], the system named is Staphylococcus aureus. The experiment in a line: Synergistic antimicrobial activity against Staphylococcus aureus DSM 1104 planktonic cells assessed as vancomycin MIC at 3.9 ug/ml by checkerboard assay. It counts as functional. To be noted: dose 3.9 µg/ml.
Data set [14] relates to Staphylococcus aureus. The data set can be described thus: Synergistic antimicrobial activity against Staphylococcus aureus DSM 1104 planktonic cells assessed as inhibition of preformed biofilm by measuring fold increase in gentamicin potency at 3.9 to 7.8 ug/ml measured at 24 to 48 hrs by CFU counting assay relative to control. It counts as functional. To be noted: dose 3.9-7.8 µg/ml; time 24-48 hrs.

The subject of data set [15] is Staphylococcus aureus. The data set can be described thus: Antimicrobial activity against Staphylococcus aureus DSM 1104 assessed as disruption of preformed biofilm by measuring reduction in metabolic activity at 2 to 7.8 ug/ml measured every 90 mins for 10 hrs by absorbance based analysis. To be noted: dose 2-7.8 µg/ml. It is filed as functional, organism-based.

The subject of data set [16] is Staphylococcus aureus. The experiment in a line: Synergistic antimicrobial activity against Staphylococcus aureus DSM 1104 planktonic cells assessed as gentamicin MIC at 3.9 ug/ml by checkerboard assay. It counts as functional. To be noted: dose 3.9 µg/ml.
For data set [17], the system named is Staphylococcus aureus. The data set can be described thus: Synergistic antimicrobial activity against Staphylococcus aureus DSM 1104 planktonic cells assessed as fractional inhibitory concentration index at 3.9 ug/ml in presence of gentamicin by checkerboard assay. As to conditions: dose 3.9 µg/ml. It counts as functional.
The test system of data set [18] is Staphylococcus aureus. The data set can be described thus: Antibiofilm activity in Staphylococcus aureus DSM1104 assessed as disruption of preformed biofilm at […] to […] ug/ml incubated for 18 hrs by crystal violet staining based assay relative to control. It counts as functional. To be noted: dose lower […] microg/ml, dose upper 250 µg/ml.
Data set [19] has as its system Staphylococcus aureus. The experiment in a line: Synergistic antimicrobial activity against Staphylococcus aureus DSM 1104 planktonic cells assessed as fold increase in gentamicin potency at 3.9 ug/ml by checkerboard assay relative to control. It is filed as functional. As to conditions: dose 3.9 µg/ml.
Data set [20] has as its system Staphylococcus aureus. The experiment in a line: Synergistic antimicrobial activity against Staphylococcus aureus DSM 1104 planktonic cells assessed as fractional inhibitory concentration index at 3.9 ug/ml in presence of vancomycin by checkerboard assay. It counts as functional. To be noted: dose 3.9 µg/ml.
Data set [21] concerns Staphylococcus aureus. The experiment in a line: Antibiofilm activity in Staphylococcus aureus DSM1104 assessed as disruption of preformed biofilm at 31.3 ug/ml incubated for 18 hrs by crystal violet staining based assay. It counts as functional, organism-based. As to conditions: dose 31.3 µg/ml.

Active and inactive are the calls of the source.

Consider `C[C@H](C[C@@H](C)[C@H](C)O)C[C@H](C)C(=O)C1=C(O)/C(=C/c2ccccc2)NC1=O`, for which the outcome (in the data set with Pseudomonas aeruginosa; in [1]; in the data set with Mucor hiemalis; with Rhodotorula glutinis; in data set [2]; in the data set with Candida albicans) was inactive. In addition, the outcome (in the data set with Escherichia coli; in data set [3]; in the data set on Wickerhamomyces anomalus) was inactive. The Activity result in the data set with L929 and in the data set with KB 3-1 was “Non-Toxic” in each case.
Turning to `C[C@H](C[C@@H](C)[C@H](C)OC=O)C[C@H](C)C(=O)C1=C(O)/C(=C/c2ccccc2)NC1=O`, the outcome (in the data set on Pseudomonas aeruginosa; in [1]; with Rhodotorula glutinis; in data set [2]; with Candida albicans; in the data set on Escherichia coli) was inactive. The result (in data set [3]; with Wickerhamomyces anomalus) was inactive. The Activity worked out at 35% with Staphylococcus aureus [4] and 50% in the data set with Staphylococcus aureus [5].
In the case of `CC[C@H](C)[C@@H]1O[C@H](c2c(O)c(-c3ccccc3)cn(O)c2=O)[C@@H](C)C[C@@H]1C`, the outcome (with Pseudomonas aeruginosa; in the data set with Staphylococcus aureus [6]; in data set [1]; in the data set on Mucor hiemalis; with Rhodotorula glutinis; in [2]) was inactive. The outcome (in the data set with Candida albicans; in the data set with Escherichia coli; in data set [3]; in the data set on Wickerhamomyces anomalus) was inactive.
With `C[C@@H](C[C@H](C)C(=O)C1=C(O)/C(=C/c2ccccc2)NC1=O)C[C@](C)(O)C(=O)CO`, the outcome (with Pseudomonas aeruginosa; in data set [1]; in the data set with Mucor hiemalis; in the data set with Rhodotorula glutinis; in the data set on Staphylococcus aureus [7]; in data set [2]) was inactive. In addition, the outcome (in the data set with Candida albicans; in the data set with Escherichia coli; in data set [3]; in the data set with Wickerhamomyces anomalus; in the data set on Bacillus subtilis) was inactive. Moreover, the Activity result in the data set on L929 and with KB 3-1 was “Non-Toxic” each time.
By MIC is commonly meant the smallest concentration in the dilution series that meets the test's criterion for growth inhibition. As for GENTAMICIN, the MIC in the data set with Pseudomonas aeruginosa was found to be 0.21 µg/mL; in [1], 0.42 µg/mL; in the data set with Staphylococcus aureus [8] it was 15.7 µg/mL; in the data set with Staphylococcus aureus [7] it was 0.4 µg/mL; with Escherichia coli, 1.7 µg/mL.
Regarding `C[C@@H](C[C@H](C)C(=O)C1=C(O)/C(=C/c2ccccc2)NC1=O)C[C@](C)(O)[C@@H](O)CO`, the outcome (in the data set on Pseudomonas aeruginosa; in data set [1]; in the data set on Mucor hiemalis; in the data set with Rhodotorula glutinis; in the data set on Staphylococcus aureus [7]; in data set [2]) was inactive. The result (with Candida albicans; with Escherichia coli; in data set [3]; in the data set on Wickerhamomyces anomalus; in the data set on Bacillus subtilis) was inactive. Further, the Activity entry in the data set with L929 and in the data set with KB 3-1 was “Non-Toxic” throughout.
As for NYSTATIN, the MIC in the data set with Mucor hiemalis was 8.3 µg/mL; in the data set on Rhodotorula glutinis it was 4.2 µg/mL; in data set [2] it was 4.2 µg/mL; in the data set on Wickerhamomyces anomalus, 8.3 µg/mL.
As to `CCC(/C=C(C)/C=C/C(=O)c1c(O)c(-c2ccc(O)cc2)cn(O)c1=O)CO` (centres undefined), the result in the data set on Staphylococcus aureus [9] was inactive.
As for `CC(=O)[C@H](C)C[C@@H](C)C[C@H](C)C(=O)C1=C(O)/C(=C/c2ccccc2)NC1=O`, the “fold change (FC)” value is 3 in the data set with Staphylococcus aureus [10], 3 in the data set with Staphylococcus aureus [14] and 115 in the data set on Staphylococcus aureus [19]. Also, the outcome in the data set with Staphylococcus aureus [11], in the data set with Staphylococcus aureus [12] and in the data set with Staphylococcus aureus [15] was Active. The result (with Pseudomonas aeruginosa; in [1]; with Rhodotorula glutinis; with Escherichia coli; in [3]; in the data set with Wickerhamomyces anomalus) was inactive. Further, the Activity in the data set with Staphylococcus aureus [4] was 35%; in the data set on Staphylococcus aureus [18], around 50%. Besides, the MIC turned out to be 0.065 µg/mL in the data set with Staphylococcus aureus [13] and 0.13 µg/mL with Staphylococcus aureus [16]. Further, the entries for the “fractional inhibitory concentration index (FICI)” value with Staphylococcus aureus [17] and in the data set on Staphylococcus aureus [20] were 0.126 and 0.158, respectively.
Regarding `CC[C@H](C)C[C@@H](C)C[C@H](C)C(=O)C1=C(O)/C(=C/c2ccccc2)NC1=O`, the result (with Pseudomonas aeruginosa; in data set [1]; in the data set with Rhodotorula glutinis; with Staphylococcus aureus [7]; in data set [2]; in the data set with Candida albicans) was inactive. For the same molecule, the outcome in the data set on Escherichia coli and in the data set with Wickerhamomyces anomalus was inactive. The outcome with Staphylococcus aureus [21] was Active.
